Test system: adult patients with uncontrolled gout
Experiment: Serum uric acid (sUA) levels and sUA responder rate, open-label study of pegloticase with MTX (MIRROR OL)
Assay type: in vivo, human
Conditions: for Serum Uric Acid Change from Methotrexate Baseline, Mean (SD) / Serum Uric Acid Change from Methotrexate Baseline, Median / Serum Uric Acid, Observed, Mean (SD) / Serum Uric Acid, Observed, Median / sUA <6 mg/dL, n (%): mITT
Procedure: The primary objective is to estimate the response rate during Month 6 (Weeks 20, 22, and 24), as measured by the sustained normalization of serum uric acid (SUA) to <6 mg/dL for at least 80% of the time during Month 6 in subjects receiving KXX with MTX.
The primary efficacy outcome endpoint is the sustained normalization of SUA to <6 mg/dL for at least 80% of the time during month 6 (weeks 20, 22, and 24) in subjects receiving KXX with MTX. […] Participants who achieve this endpoint were classified as “responders.” Serum uric acid (SUA) responders may also be defined as participants achieving and maintaining SUA <6 mg/dL for at least 80% of the time during Month 6 (Weeks 20, 22, and 24).
Blood samples may be collected prior to each pegloticase infusion for measurement of SUA levels using the Beckman Coulter AU System Uric Acid procedure. Participants were declared “non-responders” if there were SUA measures >6 mg/dL at 2 consecutive study visits beginning with the week 2 visit. […] This assumption and subsequent discontinuation of pegloticase was consistent with the protocol of large phase III randomized controlled trials and the product label. A formal stopping rule was 2 occasions of SUA levels of greater than 6 mg/dL.
Clinical Chemistry—Blood samples were collected prior to each pegloticase infusion for measurement of SUA levels (primary efficacy parameter) using the Beckman Coulter AU System Uric Acid procedure. In this procedure uric acid is converted to hydrogen peroxide. Hydrogen peroxide reacts with reagent to produce a chromophore which is read bichromatically at 660/800 nm. The amount of dye formed is proportional to the uric acid concentration in the sample.
Serum samples for measurement of SUA levels were collected at the Screening Visit, the Week −4 Visit (prior to the first dose of MTX), and the Week −2 Visit during the MTX Run-in Period; within 48 hours prior to each pegloticase infusion and after the end of each pegloticase infusion prior to discharge from the site during the Pegloticase+IMM Period; at the non-infusion Week 52/End of Study/Early Termination Visits and at the Post Treatment 3 and 6 Month Follow-up Visits. Additional serum samples for SUA levels were collected at optional non-infusion (Frequent Sampling) Visits at Weeks 1 and 7. […] Subjects with SUA level >6 mg/dL at 2 consecutive visits beginning at Week 2 visit discontinued treatment, completed the End of Pegloticase Infusion Visit procedures within 2 weeks and continued the subject visits according to the protocol (without treatment).
Efficacy analyses were performed using the modified intention-to-treat (mITT) population, defined as all enrolled subjects who received ≥1 dose of pegloticase. The proportion of Month 6 responders was summarized, along with a 95% confidence interval for the proportion. The proportion of Month 3 and overall (Months 3 and 6 combined) responders was analyzed similarly.
A subject was declared a non-responder if the subject had SUA level >6 mg/dL at 2 consecutive study visits beginning with the Week 2 Visit. In addition, a subject who withdraws from study treatment for any reason after the first dose of pegloticase in the KXX+MTX Period and prior to Month 6 (for the primary endpoint) or Month 3 (for the secondary endpoint) was considered a non-responder if SUA values were not collected at the planned time points.
Patients were administered oral MTX (15 mg/week) and folate (1 mg/day) 4 weeks prior to the first pegloticase infusion (Day 1) and throughout the pegloticase treatment period. Blood was drawn prior to each infusion to measure sUA level, monitor clinical parameters, and examine for ADA development. All patients followed typical IR prophylaxis protocols (fexofenadine one day before and the morning of each infusion and acetaminophen and IV corticosteroid the morning of each infusion).

[1] = Day 1 - Pre-Infusion (after MTX Run-in)

SMILES: CN(Cc1cnc2nc(N)nc(N)c2n1)c1ccc(C(=O)N[C@@H](CCC(=O)O)C(=O)O)cc1 [MTX, methotrexate]
- mean sUA (Day 1, after 4-week MTX run-in, before first pegloticase infusion, 14 patients): 9.2 ± 2.5 mg/dL
- Serum Uric Acid Change from Methotrexate Baseline, Mean (SD) [1]: 0.25 (1.283) mg/dL
- Serum Uric Acid Change from Methotrexate Baseline, Median [1]: -0.25 mg/dL
- Serum Uric Acid, Observed, Mean (SD) [1]: 9.16 (2.486) mg/dL
- Serum Uric Acid, Observed, Median [1]: 9.00 mg/dL
- sUA <6 mg/dL, n (%) [1]: 1 (7.1%)
- Serum Uric Acid Change from Methotrexate Baseline, Mean (SD) (Week - 2 (MTX Run-in)): 0.54 (0.839) mg/dL
- Serum Uric Acid Change from Methotrexate Baseline, Median (Week - 2 (MTX Run-in)): 0.50 mg/dL
- Serum Uric Acid, Observed, Mean (SD) (Week - 2 (MTX Run-in)): 9.45 (2.211) mg/dL
- Serum Uric Acid, Observed, Median (Week - 2 (MTX Run-in)): 9.30 mg/dL
- sUA <6 mg/dL, n (%) (Week - 2 (MTX Run-in)): 1 (7.1%)
